In patent publication US20240391936A1, “TETRAHYDROTHIENO PYRIDINE DERIVATIVES AS DDRS INHIBITORS” (CHIESI FARMACEUTICI S.P.A., priority 2021, published 2024):

What was measured:
DDR1 [1] = target: T1, DDR1 (Homo sapiens, UniProt Q08345); test: DDR1 cell based assay (PathHunter U2OS DDR1 assay); set-up: host or cells: U2OS-DDR1 (PathHunter); conditions: U2OS-DDR1 cells, bovine Type II Collagen 20 μg/ml
Method in brief: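 Receptor activation measured by enzyme-fragment complementation luminescence in engineered U2OS cells. Compound added 30 min before overnight challenge with 20 μg/ml bovine collagen II; data scaled between vehicle and collagen-stimulated controls, IC50 derived by four-parameter variable-slope fitting.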

DDR1 [2] = target: T1, DDR1; test: DDR1 binding assay (LanthaScreen Europium Kinase Binding assay); set-up: purchased Carna Biosciences; conditions: binding assay, 5 nM DDR1, 20 nM Kinase Tracer 178; Ki from IC50 by Cheng-Prusoff; read-out: Ki DDR1
Method in brief: (§1)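 TR-FRET tracer-displacement format: 665/615 nm emission ratio (340 nm excitation) gave IC50 by 4-parameter fit, then Ki via Cheng-Prusoff. Each kinase at 5 nM with 2 nM Eu-anti-GST antibody and Tracer 178 (DDR1 20 nM, DDR2 10 nM), 1 h, room temperature, HEPES pH 7.5 buffer.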

DDR2 = target: T2, DDR2 (Homo sapiens, UniProt Q16832); test: DDR2 binding assay (LanthaScreen Europium Kinase Binding assay); set-up: purchased Life Technologies; conditions: binding assay, 5 nM DDR2, 10 nM Kinase Tracer 178; Ki from IC50 by Cheng-Prusoff; read-out: Ki DDR2
T2 sequence (Q16832 22-855): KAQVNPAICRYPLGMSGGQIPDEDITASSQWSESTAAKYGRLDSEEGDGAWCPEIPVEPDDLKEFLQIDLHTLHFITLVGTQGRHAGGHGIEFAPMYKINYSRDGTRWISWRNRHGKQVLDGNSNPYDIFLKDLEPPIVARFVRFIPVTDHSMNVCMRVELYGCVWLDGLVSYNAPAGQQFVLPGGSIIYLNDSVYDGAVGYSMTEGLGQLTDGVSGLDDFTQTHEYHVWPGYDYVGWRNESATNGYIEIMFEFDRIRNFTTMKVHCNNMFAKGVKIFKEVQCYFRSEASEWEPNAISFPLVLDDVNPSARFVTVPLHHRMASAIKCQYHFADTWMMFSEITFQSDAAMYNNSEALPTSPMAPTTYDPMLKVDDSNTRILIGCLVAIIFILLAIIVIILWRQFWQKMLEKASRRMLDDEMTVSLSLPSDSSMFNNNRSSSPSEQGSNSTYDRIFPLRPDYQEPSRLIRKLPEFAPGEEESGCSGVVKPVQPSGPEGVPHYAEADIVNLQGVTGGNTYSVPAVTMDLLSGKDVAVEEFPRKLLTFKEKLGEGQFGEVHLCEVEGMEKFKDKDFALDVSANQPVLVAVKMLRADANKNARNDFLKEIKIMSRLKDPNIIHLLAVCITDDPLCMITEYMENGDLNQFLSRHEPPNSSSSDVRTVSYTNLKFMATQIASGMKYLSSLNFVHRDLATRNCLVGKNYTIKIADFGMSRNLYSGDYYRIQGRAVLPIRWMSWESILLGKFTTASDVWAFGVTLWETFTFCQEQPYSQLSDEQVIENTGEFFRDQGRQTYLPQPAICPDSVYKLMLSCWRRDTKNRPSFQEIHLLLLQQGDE
Method in brief: as §1

T1 sequence (Q08345 19-913): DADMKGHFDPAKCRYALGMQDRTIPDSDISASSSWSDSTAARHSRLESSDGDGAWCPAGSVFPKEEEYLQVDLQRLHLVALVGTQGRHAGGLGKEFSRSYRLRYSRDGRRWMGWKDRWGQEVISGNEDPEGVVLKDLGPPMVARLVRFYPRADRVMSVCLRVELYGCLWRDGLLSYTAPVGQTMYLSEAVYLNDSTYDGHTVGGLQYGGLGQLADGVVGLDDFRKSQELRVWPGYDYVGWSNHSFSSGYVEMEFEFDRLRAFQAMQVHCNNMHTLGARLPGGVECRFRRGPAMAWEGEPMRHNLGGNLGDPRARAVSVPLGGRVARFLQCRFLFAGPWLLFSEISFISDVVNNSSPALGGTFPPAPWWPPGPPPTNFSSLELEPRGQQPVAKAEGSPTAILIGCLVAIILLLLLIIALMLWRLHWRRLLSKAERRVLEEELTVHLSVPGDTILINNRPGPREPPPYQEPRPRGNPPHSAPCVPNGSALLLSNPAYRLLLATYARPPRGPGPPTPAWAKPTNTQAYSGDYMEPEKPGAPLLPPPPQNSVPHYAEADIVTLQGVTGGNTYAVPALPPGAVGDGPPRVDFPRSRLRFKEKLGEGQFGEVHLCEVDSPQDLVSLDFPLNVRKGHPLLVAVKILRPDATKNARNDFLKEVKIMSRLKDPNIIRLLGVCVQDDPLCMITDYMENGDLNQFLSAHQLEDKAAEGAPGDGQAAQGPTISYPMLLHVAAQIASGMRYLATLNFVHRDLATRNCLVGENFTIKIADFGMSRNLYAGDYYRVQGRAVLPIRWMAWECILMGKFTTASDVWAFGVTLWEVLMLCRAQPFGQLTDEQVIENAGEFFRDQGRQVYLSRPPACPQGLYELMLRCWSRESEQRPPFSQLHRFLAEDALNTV

Compound | IC50 (DDR1 [1]) | Ki (DDR1 [2]) | Ki (DDR2)
Cc1ccc2ncc(C(=O)N3CCc4c(C(=O)Nc5cc(C(C)(C)C)nn5C)csc4C3)n2c1 [Example 80, N-(3-(tert-butyl)-1-methyl-1H-pyrazol-5-yl)-6-(6-methylimidazo[1,2-a]pyridine-3-carbonyl)-4,5,6,7-tetrahydrothieno[2,3-c]pyridine-3-carboxamide] | 25 to 50 nM | < 25 nM | < 25 nM
Cn1nc(C(C)(C)C)cc1NC(=O)c1csc2c1CCN(C(=O)c1cnc3ccc(F)cn13)C2 [Example 81, N-(3-(tert-butyl)-1-methyl-1H-pyrazol-5-yl)-6-(6-fluoroimidazo[1,2-a]pyridine-3-carbonyl)-4,5,6,7-tetrahydrothieno[2,3-c]pyridine-3-carboxamide] | 50 to 80 nM | < 25 nM | < 25 nM
Cn1nc(C(C)(C)C)cc1NC(=O)c1csc2c1CCN(C(=O)c1cnc3ccc(C(F)(F)F)cn13)C2 [Example 82, N-(3-(tert-butyl)-1-methyl-1H-pyrazol-5-yl)-6-(6-(trifluoromethyl)imidazo[1,2-a]pyridine-3-carbonyl)-4,5,6,7-tetrahydrothieno[2,3-c]pyridine-3-carboxamide] | 25 to 50 nM | < 25 nM | < 25 nM
Cn1nc(C(C)(C)C)cc1NC(=O)c1csc2c1CCN(C(=O)c1cnc3ccc(Cl)cn13)C2 [Example 83, N-(3-(tert-butyl)-1-methyl-1H-pyrazol-5-yl)-6-(6-chloroimidazo[1,2-a]pyridine-3-carbonyl)-4,5,6,7-tetrahydrothieno[2,3-c]pyridine-3-carboxamide] | 25 to 50 nM | < 25 nM | < 25 nM
O=C(Nc1cccc(C(F)(F)F)c1)c1csc2c1CCN(Cc1cnc3cccnn13)C2 [Example 87, 6-(imidazo[1,2-b]pyridazin-3-ylmethyl)-N-(3-(trifluoromethyl)phenyl)-4,5,6,7-tetrahydrothieno[2,3-c]pyridine-3-carboxamide] | 50 to 80 nM | < 25 nM | < 25 nM
O=C(Nc1cccc(C(F)(F)F)c1)c1csc2c1CCN(Cc1cnc3ccnn3c1)C2 [Example 88, 6-(pyrazolo[1,5-a]pyrimidin-6-ylmethyl)-N-(3-(trifluoromethyl)phenyl)-4,5,6,7-tetrahydrothieno[2,3-c]pyridine-3-carboxamide] | < 25 nM | < 25 nM | < 25 nM
O=C(Nc1cccc(C(F)(F)F)c1)c1csc2c1CCN(Cc1cnn3cccnc13)C2 [Example 89, 6-(pyrazolo[1,5-a]pyrimidin-3-ylmethyl)-N-(3-(trifluoromethyl)phenyl)-4,5,6,7-tetrahydrothieno[2,3-c]pyridine-3-carboxamide] | < 25 nM | < 25 nM | < 25 nM
O=C(Nc1cccc(C(F)(F)F)c1)c1csc2c1CCN(C(=O)c1cnc3[nH]ncc3c1)C2 [Example 91, 6-(1H-pyrazolo[3,4-b]pyridine-5-carbonyl)-N-(3-(trifluoromethyl)phenyl)-4,5,6,7-tetrahydrothieno[2,3-c]pyridine-3-carboxamide] | < 25 nM | < 25 nM | < 25 nM
O=C(Nc1cccc(C(F)(F)F)c1)c1csc2c1CCN(C(=O)c1cnc3cccnn13)C2 [Example 92, 6-(imidazo[1,2-b]pyridazine-3-carbonyl)-N-(3-(trifluoromethyl)phenyl)-4,5,6,7-tetrahydrothieno[2,3-c]pyridine-3-carboxamide] | < 25 nM | < 25 nM | < 25 nM
O=C(Nc1cccc(C(F)(F)F)c1)c1csc2c1CCN(C(=O)c1cnn3cccnc13)C2 [Example 94, 6-(pyrazolo[1,5-a]pyrimidine-3-carbonyl)-N-(3-(trifluoromethyl)phenyl)-4,5,6,7-tetrahydrothieno[2,3-c]pyridine-3-carboxamide] | 50 to 80 nM | < 25 nM | < 25 nM
O=C(Nc1cccc(C(F)(F)F)c1)c1csc2c1CCN(C(=O)c1cnc3n1CCCC3)C2 [Example 95, 6-(5,6,7,8-tetrahydroimidazo[1,2-a]pyridine-3-carbonyl)-N-(3-(trifluoromethyl)phenyl)-4,5,6,7-tetrahydrothieno[2,3-c]pyridine-3-carboxamide] | < 25 nM | < 25 nM | < 25 nM
O=C(Nc1cccc(C(F)(F)F)c1)c1csc2c1CCN(C(=O)c1cnc3n1CCOC3)C2 [Example 96, 6-(5,6-dihydro-8H-imidazo[2,1-c][1,4]oxazine-3-carbonyl)-N-(3-(trifluoromethyl)phenyl)-4,5,6,7-tetrahydrothieno[2,3-c]pyridine-3-carboxamide] | < 25 nM | < 25 nM | < 25 nM
O=C(Nc1cc(F)cc(C(F)(F)F)c1)c1csc2c1CCN(C(=O)c1cnn3cccnc13)C2 [Example 97, N-(3-fluoro-5-(trifluoromethyl)phenyl)-6-(pyrazolo[1,5-a]pyrimidine-3-carbonyl)-4,5,6,7-tetrahydrothieno[2,3-c]pyridine-3-carboxamide] | < 25 nM | < 25 nM | < 25 nM
CC1c2scc(C(=O)Nc3cc(C(C)(C)C)nn3C)c2CCN1C(=O)c1cnc2ccccn12 (stereo not drawn) [Example 99, N-(3-(tert-butyl)-1-methyl-1H-pyrazol-5-yl)-6-(imidazo[1,2-a]pyridine-3-carbonyl)-7-methyl-4,5,6,7-tetrahydrothieno[2,3-c]pyridine-3-carboxamide] | 25 to 50 nM | < 25 nM | 50 to 80 nM
O=C(Nc1cncc(C(F)(F)F)c1)c1csc2c1CCN(C(=O)c1cnn3cccnc13)C2 [Example 109, 6-(pyrazolo[1,5-a]pyrimidine-3-carbonyl)-N-(5-(trifluoromethyl)pyridin-3-yl)-4,5,6,7-tetrahydrothieno[2,3-c]pyridine-3-carboxamide] | 25 to 50 nM | < 25 nM | < 25 nM
O=C(Nc1cncc(C(F)(F)F)c1)c1csc2c1CCN(C(=O)c1cnc3n1CCOC3)C2 [Example 110, 6-(5,6-dihydro-8H-imidazo[2,1-c][1,4]oxazine-3-carbonyl)-N-(5-(trifluoromethyl)pyridin-3-yl)-4,5,6,7-tetrahydrothieno[2,3-c]pyridine-3-carboxamide] | 25 to 50 nM | < 25 nM | < 25 nM
O=C(Nc1cncc(C(F)(F)F)c1)c1csc2c1CCN(C(=O)c1cnc3n1CCCC3)C2 [Example 111, 6-(5,6,7,8-tetrahydroimidazo[1,2-a]pyridine-3-carbonyl)-N-(5-(trifluoromethyl)pyridin-3-yl)-4,5,6,7-tetrahydrothieno[2,3-c]pyridine-3-carboxamide] | 50 to 80 nM | < 25 nM | < 25 nM
CC(C)(C)c1cc(NC(=O)c2csc3c2CCN(C(=O)c2cnc4n2CCOC4)C3)on1 [Example 112, N-(3-(tert-butyl)isoxazol-5-yl)-6-(5,6-dihydro-8H-imidazo[2,1-c][1,4]oxazine-3-carbonyl)-4,5,6,7-tetrahydrothieno[2,3-c]pyridine-3-carboxamide] | 25 to 50 nM | < 25 nM | < 25 nM
CC(C)(C)c1cc(NC(=O)c2csc3c2CCN(C(=O)c2cnn4ccncc24)C3)on1 [Example 113, N-(3-(tert-butyl)isoxazol-5-yl)-6-(pyrazolo[1,5-a]pyrazine-3-carbonyl)-4,5,6,7-tetrahydrothieno[2,3-c]pyridine-3-carboxamide] | 25 to 50 nM | < 25 nM | < 25 nM
